According to ChEMBL document CHEMBL1201862, “PubChem BioAssay data set” (2004):
Calls of active or inactive are those of the source.

Legend:
[1] = target: T1, Beta-lactamase (Pseudomonas aeruginosa, UniProt Q79MP6); test: inhibition of IMP-1 beta-lactamase activity – biochemical, epi-absorbance, selectivity assay for VIM-2 inhibitor project, dose response (AID 1920)
[2] = target: Trypsin (Sus scrofa, UniProt P00761); test: trypsin protease activity blockade – biochemical, quenched peptide fluorescence, cherry-pick, selectivity assay for Rce1 protease inhibitor project, dose response (AID 488789)
[3] = target: T1, Beta-lactamase; test: […] counterscreen for selective VIM-2 inhibitors: dose response biochemical high throughput screening assay to identify inhibitors of IMP-1 metallo-beta-lactamase.
[4] = target: Beta-lactamase (Salmonella choleraesuis (strain SC-B67), UniProt Q5J463); test: Epi-absorbance-based counterscreen for selective VIM-2 inhibitors: dose response biochemical high throughput screening assay to identify inhibitors of TEM-1 serine-beta-lactamase.
[5] = target: Potassium channel subfamily K member 3 (Homo sapiens, UniProt O14649); test: inhibition of human KCNK3 channel flux – CHO cells, FluxOR thallium flux, SAR follow-up (AID 652212); type: functional
[6] = target: Potassium channel subfamily K member 9 (Homo sapiens, UniProt Q9NPC2); test: KCNK9 flux blockade, concentration-response – cell-based, FluxOR thallium flux, selectivity assay for TASK1 inhibitor project, SAR follow-up (AID 652211); type: functional;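 note: potency is for inhibitors of the channel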
[7] = Trypanosoma cruzi growth suppression in host cells – NIH3T3 host cells, beta-gal luminescence, confirmation (AID 2044); type: functional, cell-based;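 note: intracellular parasites grown in NIH/3T3 mouse fibroblasts as host cells; luminescent beta-galactosidase reporter signal from transgenic T. cruzi replicating inside host cells; inhibitors lower the luminescence signal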
[8] = cells
[9] = target: Arf-GAP with SH3 domain, ANK repeat and PH domain-containing protein 1 (Homo sapiens, UniProt Q9ULH1); type: functional;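 note: biochemical fluorescence polarization dose–response screen measuring inhibition of ASAP1; ASAP1 GAP domain stimulating GTP hydrolysis by truncated human ARF1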
[10] = NIH3T3 cell viability loss – ATP luminescence, mouse fibroblasts, counter-screen, dose response (AID 2010); type: functional, cell-based;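 note: cells exposed to compound for about 90 hours before reading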
[11] = target: T2, Short transient receptor potential channel 4 (Mus musculus, UniProt Q9QUQ5); test: block of DAMGO-driven TRPC4 calcium entry – cell-based, HEK293 TRPC4/mu-opioid, Fluo-4 calcium, dose response (AID 434942); type: functional;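 note: potency of inhibitors blocking the TRPC4 calcium response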
T2 sequence (Q9QUQ5 whole entry): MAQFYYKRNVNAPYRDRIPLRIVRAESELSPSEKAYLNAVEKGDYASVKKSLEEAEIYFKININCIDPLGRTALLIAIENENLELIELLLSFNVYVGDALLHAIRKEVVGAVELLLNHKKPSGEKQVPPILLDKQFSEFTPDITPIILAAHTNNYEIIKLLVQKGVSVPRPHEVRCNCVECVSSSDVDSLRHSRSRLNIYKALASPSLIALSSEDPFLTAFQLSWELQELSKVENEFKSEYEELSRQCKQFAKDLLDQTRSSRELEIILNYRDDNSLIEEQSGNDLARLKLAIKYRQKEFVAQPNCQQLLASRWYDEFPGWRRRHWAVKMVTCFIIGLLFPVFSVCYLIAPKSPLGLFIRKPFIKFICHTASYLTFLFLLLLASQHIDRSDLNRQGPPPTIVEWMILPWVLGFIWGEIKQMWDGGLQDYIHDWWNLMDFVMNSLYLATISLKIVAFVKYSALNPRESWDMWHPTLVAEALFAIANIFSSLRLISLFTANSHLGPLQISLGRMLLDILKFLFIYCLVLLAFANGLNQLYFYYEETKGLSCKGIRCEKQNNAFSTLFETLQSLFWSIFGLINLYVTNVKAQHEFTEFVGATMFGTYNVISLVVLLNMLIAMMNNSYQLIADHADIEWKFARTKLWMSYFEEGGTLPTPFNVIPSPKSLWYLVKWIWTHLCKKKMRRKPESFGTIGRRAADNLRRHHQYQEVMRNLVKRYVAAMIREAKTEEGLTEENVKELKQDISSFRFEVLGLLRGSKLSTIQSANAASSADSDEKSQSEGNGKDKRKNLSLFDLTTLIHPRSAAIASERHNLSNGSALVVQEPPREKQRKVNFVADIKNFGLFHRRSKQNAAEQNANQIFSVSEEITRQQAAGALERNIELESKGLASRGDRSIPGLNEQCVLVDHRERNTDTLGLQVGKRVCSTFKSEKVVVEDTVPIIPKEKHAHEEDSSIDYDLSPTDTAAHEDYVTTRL

[12] = target: SWI/SNF-related matrix-associated actin-dependent regulator of chromatin subfamily A member 2 (Homo sapiens, UniProt P51531); test: Luminescence-based cell-based high throughput dose response assay to identify activators of the function of SWI/SNF related, matrix associated, actin dependent regulator of chromatin, subfamily a, member 2 (SMARCA2, BRM).; type: functional
[13] = Counterscreen for activators of the function of SWI/SNF related, matrix associated, actin dependent regulator of chromatin, subfamily a, member 2 (SMARCA2, BRM): Luminescence-based cell-based high throughput dose response assay to identify non-selective compounds using the VP16 reporter assay.; type: functional
[14] = target: T3, DNA repair protein RAD52 homolog (Homo sapiens, UniProt P43351); type: functional, biochemical
T3 sequence (P43351 whole entry): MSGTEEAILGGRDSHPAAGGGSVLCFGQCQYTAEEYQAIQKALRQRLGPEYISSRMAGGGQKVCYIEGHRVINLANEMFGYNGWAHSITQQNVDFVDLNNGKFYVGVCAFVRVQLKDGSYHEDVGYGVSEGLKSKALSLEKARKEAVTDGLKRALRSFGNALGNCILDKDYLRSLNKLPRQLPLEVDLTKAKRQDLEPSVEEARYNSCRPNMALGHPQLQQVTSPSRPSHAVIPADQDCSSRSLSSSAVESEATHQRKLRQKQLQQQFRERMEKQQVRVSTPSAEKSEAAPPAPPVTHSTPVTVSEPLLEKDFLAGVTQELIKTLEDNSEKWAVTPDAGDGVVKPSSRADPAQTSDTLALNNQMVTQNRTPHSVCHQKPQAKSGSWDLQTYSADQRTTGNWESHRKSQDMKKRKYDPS

[15] = target: Broad substrate specificity ATP-binding cassette transporter ABCG2 (Homo sapiens, UniProt Q9UNQ0); test: blockers of JC-1 export by ABCG2 – Ig-MXP3 cells, flow cytometry, dose response (AID 1690); type: functional
[16] = tested on: Streptococcus sp. 'group A'; test: Streptococcus pyogenes SK(-)GAS viability under kanamycin – luminescence, BacTiterGlo, confirmation, counter-screen for streptokinase expression inhibitor project, dose response (AID 1900); type: functional, organism-based
[17] = tested on: Streptococcus; test: GAS UMAA2166 growth inhibition – luminescence, BacTiterGlo, counter-screen for streptokinase expression inhibitor project, dose response (AID 1915); type: functional, organism-based;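 note: potency for reduction of bacterial viability or growth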
[18] = target: T4, Streptokinase A (Streptococcus pyogenes serotype M1, UniProt P10520); test: viability-normalized secreted streptokinase activity reduction – plasminogen activation absorbance, OD405, dose response (AID 1914); type: functional, Streptococcus pyogenes M1 GAS;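 note: secreted streptokinase activity via plasminogen activation per viability signal from cell pellet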
T4 sequence (P10520 whole entry): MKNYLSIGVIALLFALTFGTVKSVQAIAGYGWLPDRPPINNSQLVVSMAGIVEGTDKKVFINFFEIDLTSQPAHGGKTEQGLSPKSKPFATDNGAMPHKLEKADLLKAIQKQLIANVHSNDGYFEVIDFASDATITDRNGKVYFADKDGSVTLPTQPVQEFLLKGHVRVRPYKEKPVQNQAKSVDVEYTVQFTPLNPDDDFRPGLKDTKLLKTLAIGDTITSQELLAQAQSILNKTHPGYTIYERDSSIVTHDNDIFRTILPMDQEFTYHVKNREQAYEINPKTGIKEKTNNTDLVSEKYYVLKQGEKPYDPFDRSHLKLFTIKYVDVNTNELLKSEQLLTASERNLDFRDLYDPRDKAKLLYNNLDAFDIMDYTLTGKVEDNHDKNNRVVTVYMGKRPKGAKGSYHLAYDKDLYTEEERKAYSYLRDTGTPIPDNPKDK

T1 sequence (Q79MP6 whole entry): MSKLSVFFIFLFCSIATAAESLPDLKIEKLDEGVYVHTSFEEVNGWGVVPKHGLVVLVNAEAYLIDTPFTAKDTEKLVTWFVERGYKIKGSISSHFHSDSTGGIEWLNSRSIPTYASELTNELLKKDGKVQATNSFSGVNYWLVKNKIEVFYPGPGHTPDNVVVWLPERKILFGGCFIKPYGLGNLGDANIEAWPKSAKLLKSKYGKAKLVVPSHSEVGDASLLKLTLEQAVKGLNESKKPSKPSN
Potassium channel subfamily K member 9, sequence (Q9NPC2 whole entry): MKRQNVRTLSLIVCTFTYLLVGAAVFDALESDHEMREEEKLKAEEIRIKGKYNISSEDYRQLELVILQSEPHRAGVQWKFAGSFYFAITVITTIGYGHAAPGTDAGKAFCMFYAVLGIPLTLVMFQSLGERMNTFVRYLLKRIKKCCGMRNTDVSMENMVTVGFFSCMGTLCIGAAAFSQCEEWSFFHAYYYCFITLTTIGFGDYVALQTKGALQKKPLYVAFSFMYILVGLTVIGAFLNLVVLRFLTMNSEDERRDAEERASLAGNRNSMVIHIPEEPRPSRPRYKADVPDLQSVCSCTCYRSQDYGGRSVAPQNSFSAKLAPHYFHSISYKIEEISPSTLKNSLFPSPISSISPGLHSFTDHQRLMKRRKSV
Broad substrate specificity ATP-binding cassette transporter ABCG2, sequence (Q9UNQ0 whole entry): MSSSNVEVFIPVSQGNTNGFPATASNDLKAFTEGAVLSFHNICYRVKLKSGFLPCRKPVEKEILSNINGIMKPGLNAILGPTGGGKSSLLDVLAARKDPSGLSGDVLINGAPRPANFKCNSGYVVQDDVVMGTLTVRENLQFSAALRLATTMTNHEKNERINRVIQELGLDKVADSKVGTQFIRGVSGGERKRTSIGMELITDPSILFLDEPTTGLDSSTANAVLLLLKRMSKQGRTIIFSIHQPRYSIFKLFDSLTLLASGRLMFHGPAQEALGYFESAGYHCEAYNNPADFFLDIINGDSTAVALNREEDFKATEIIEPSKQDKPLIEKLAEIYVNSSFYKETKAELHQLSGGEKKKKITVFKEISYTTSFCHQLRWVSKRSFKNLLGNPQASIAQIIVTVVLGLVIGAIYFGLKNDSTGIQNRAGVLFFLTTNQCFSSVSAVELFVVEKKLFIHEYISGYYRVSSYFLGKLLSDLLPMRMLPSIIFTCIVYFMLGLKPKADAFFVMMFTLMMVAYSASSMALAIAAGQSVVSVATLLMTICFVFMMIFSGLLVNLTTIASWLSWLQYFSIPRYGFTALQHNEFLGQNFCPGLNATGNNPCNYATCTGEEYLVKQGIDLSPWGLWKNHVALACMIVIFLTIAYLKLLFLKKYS
Beta-lactamase (Salmonella choleraesuis (strain SC-B67), UniProt Q5J463), sequence (Q5J463 whole entry): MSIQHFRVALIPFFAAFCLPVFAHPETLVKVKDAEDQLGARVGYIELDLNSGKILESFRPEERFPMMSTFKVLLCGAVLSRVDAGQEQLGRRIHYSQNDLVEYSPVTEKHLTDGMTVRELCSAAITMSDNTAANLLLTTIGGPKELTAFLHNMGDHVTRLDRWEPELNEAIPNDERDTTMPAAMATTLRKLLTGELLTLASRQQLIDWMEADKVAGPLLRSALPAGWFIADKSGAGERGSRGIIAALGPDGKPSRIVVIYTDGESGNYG
Trypsin, sequence (P00761 whole entry): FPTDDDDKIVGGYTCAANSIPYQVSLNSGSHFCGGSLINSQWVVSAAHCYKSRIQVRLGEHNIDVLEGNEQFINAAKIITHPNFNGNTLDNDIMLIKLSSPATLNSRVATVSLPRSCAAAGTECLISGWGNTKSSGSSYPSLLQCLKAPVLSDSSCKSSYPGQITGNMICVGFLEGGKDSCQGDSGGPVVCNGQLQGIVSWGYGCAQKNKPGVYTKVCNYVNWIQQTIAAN
SWI/SNF-related matrix-associated actin-dependent regulator of chromatin subfamily A member 2, sequence (P51531 whole entry): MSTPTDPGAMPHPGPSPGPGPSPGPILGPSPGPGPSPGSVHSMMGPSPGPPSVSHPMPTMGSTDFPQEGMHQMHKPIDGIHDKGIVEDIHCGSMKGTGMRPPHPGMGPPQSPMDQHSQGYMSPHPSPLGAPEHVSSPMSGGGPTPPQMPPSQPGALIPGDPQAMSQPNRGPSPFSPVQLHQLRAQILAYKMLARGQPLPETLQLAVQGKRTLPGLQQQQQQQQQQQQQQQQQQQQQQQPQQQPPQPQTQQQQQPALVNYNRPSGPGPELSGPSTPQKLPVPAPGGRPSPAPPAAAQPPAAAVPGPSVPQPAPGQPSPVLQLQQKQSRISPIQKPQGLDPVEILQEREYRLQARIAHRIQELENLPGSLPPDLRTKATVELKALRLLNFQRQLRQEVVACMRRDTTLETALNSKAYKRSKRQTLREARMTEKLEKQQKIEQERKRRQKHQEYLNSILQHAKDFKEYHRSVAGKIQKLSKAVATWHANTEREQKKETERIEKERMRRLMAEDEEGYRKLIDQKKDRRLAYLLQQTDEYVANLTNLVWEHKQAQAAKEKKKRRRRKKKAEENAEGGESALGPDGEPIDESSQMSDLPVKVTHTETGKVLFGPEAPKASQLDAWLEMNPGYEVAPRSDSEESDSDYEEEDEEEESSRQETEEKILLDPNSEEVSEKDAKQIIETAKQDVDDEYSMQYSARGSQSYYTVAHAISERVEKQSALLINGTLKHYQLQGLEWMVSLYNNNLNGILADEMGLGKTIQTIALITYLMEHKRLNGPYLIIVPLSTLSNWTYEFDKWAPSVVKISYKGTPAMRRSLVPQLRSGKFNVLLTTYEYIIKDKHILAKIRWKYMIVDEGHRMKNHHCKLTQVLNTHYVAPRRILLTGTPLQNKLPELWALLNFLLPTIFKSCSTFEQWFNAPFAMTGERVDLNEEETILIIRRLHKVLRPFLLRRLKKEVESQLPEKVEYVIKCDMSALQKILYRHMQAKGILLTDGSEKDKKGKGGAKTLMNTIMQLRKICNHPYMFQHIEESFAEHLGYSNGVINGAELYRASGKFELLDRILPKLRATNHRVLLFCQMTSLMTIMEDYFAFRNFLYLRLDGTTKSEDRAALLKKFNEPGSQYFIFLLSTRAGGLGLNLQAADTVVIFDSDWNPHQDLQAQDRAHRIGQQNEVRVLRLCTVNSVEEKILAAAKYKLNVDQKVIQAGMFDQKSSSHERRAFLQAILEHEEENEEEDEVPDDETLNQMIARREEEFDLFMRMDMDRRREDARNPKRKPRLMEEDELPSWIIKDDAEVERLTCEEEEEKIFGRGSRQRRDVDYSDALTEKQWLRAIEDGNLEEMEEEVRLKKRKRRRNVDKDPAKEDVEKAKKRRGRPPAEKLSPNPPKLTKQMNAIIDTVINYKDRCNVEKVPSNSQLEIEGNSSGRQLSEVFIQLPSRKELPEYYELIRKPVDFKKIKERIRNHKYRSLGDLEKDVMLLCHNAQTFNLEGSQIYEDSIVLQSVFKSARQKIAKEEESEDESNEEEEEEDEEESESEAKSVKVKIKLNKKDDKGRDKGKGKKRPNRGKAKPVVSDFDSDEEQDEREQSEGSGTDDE
Potassium channel subfamily K member 3, sequence (O14649 whole entry): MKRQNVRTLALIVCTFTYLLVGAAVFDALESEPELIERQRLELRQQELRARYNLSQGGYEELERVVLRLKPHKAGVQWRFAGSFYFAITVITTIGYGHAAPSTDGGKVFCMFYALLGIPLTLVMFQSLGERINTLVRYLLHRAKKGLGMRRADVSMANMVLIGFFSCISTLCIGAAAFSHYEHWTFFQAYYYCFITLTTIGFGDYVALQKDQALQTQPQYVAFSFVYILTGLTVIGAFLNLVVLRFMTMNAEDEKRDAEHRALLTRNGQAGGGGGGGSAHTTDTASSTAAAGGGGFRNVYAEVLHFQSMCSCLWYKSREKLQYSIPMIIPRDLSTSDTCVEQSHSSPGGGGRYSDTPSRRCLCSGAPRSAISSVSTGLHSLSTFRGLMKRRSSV
Arf-GAP with SH3 domain, ANK repeat and PH domain-containing protein 1, sequence (Q9ULH1 whole entry, the tested form may be a part): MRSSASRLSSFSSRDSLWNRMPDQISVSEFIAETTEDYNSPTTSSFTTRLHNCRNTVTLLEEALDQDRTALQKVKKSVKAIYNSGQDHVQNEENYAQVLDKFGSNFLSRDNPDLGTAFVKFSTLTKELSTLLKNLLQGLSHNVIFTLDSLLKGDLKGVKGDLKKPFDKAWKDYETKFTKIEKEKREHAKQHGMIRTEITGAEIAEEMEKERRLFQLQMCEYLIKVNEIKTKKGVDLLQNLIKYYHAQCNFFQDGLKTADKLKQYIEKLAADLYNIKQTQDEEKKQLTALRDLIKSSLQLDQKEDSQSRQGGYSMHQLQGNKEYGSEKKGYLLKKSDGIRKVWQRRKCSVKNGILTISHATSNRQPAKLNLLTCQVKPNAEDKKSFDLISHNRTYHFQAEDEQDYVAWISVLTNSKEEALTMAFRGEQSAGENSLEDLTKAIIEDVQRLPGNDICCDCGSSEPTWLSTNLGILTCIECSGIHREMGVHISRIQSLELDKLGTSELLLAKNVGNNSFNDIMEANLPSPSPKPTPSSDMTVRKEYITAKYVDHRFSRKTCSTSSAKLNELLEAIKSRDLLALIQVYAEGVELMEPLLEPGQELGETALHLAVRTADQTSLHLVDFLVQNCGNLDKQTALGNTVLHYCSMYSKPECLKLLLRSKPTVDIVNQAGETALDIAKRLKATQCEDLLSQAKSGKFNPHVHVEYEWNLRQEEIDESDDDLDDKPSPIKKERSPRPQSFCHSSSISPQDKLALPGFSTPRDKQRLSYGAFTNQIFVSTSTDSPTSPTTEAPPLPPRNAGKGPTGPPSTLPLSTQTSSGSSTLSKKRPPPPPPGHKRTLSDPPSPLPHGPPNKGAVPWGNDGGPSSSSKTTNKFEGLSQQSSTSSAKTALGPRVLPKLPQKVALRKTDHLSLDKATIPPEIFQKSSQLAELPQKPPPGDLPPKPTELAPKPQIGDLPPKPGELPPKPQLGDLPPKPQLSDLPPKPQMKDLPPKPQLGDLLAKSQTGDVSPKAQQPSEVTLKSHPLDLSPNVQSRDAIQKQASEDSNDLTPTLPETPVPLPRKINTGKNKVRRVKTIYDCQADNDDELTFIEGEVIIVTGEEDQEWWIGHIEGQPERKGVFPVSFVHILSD

CCCCn1c(S)nnc1-c1sccc1C
IC50 [1]: > 59.6 µM (inactive) | AC50 [2]: 10 µM (active) | IC50 [3]: > 59.6 µM (inactive) | IC50 [4]: > 59.6 µM (inactive)

CCOc1ccccc1NC(=O)c1cccc(NC(=O)c2cccc(C)c2)c1
IC50 [5]: 0.017 µM (active) | IC50 [6]: 0.29 µM (active)

COc1cc2oc3ccc(C#Cc4ccccn4)cc3c(=O)c2cc1OC
EC50 [7]: < 0.1 µM (active) | EC50 [8]: 0.183 µM (active) | IC50 [9]: 44.1 µM (inactive) | EC50 [10]: > 60 µM (not active)

COc1nc(NC(=N)N)nc2ccc(C)cc12
EC50 [11]: 5.31 µM (active) | EC50 [12]: > 3.38 µM (active) | EC50 [13]: > 91.2 µM (inactive) | AC50 [14]: 9.39 µM (active)

COc1cccc(-c2nc(N3CC(C)CC(C)C3)c3ccccc3n2)c1O (stereo not given)
EC50 [7]: 1.84 µM (active) | EC50 [15]: 1.04 µM (active) | EC50 [16]: 5.15 µM (active) | EC50 [17]: 82.5 µM (active) | EC50 [18]: 6.53 µM (active) | EC50 [10]: > 60 µM (not active)
